In PubChem BioAssay AID222 (DTP/NCI, 2004):
“And” between values parts separate entries of the source, which are not always exact repeats. Equal values may be shown once. Inconclusive results and toxic doses are left out. Rule for the calls: active = survival T/C of 150% or more; inactive = T/C below 125% in these data.

Tested on: C57BL/6 mice, intracerebral ependymoblastoma, median survival T/C
Assay: NCI In Vivo Anticancer Drug Screen. Data for tumor model Ependymoblastoma (intracerebral) in C57BL/6 mice
Details: endpoint: median survival time, higher = longer survival
Method: The antitumor activity of compounds was measured in mice bearing transplantable tumors. Survival or tumor size were measured and the results are expressed as the measurement made in the treated group (T) divided by the measurement made in the vehicle treated control group (C). The tumor model used in this assay is Ependymoblastoma (intracerebral) in C57BL/6 mice

[1] = dose: 32.0 mg/kg/injection, schedule: Q01DX005 (ip), vehicle: saline
[2] = dose: 4.0 mg/kg/injection, schedule: Q01DX005 (ip), vehicle: saline with Tween-80
[3] = dose: 8.0 mg/kg/injection, schedule: Q01DX005 (ip), vehicle: saline with Tween-80
[4] = dose: 16.0 mg/kg/injection, schedule: Q01DX005 (ip), vehicle: saline with Tween-80
[5] = dose: 32.0 mg/kg/injection, schedule: Q01DX005 (ip), vehicle: saline with Tween-80
[6] = dose: 64.0 mg/kg/injection, schedule: Q01DX005 (ip), vehicle: saline with Tween-80
[7] = dose: 128.0 mg/kg/injection, schedule: Q01DX001 (ip), vehicle: Klucel (hydroxypropylcellulose) (HPC)

Measured: T/C

CN(N=O)C(=O)N[C@@H](C=O)[C@@H](O)[C@H](O)[C@H](O)CO
inactive: dose: 14.5 mg/kg/injection, schedule: Q## X006 (ip), vehicle: saline 109 % of control | dose: 16.0 mg/kg/injection, schedule: Q01DX001 (ip), vehicle: saline 98 % of control and 109 % of control | dose: 16.0 mg/kg/injection, schedule: Q01DX005 (ip), vehicle: other 113 % of control | dose: 16.0 mg/kg/injection, schedule: Q01DX005 (ip), vehicle: saline 117 % of control | dose: 16.0 mg/kg/injection, schedule: Q#A X002 (ip), vehicle: saline 100 % of control and 108 % of control | dose: 29.0 mg/kg/injection, schedule: Q## X006 (ip), vehicle: saline 111 % of control | dose: 32.0 mg/kg/injection, schedule: Q01DX001 (ip), vehicle: other 105 % of control | dose: 32.0 mg/kg/injection, schedule: Q01DX001 (oral), vehicle: other 116 % of control | dose: 32.0 mg/kg/injection, schedule: Q01DX005 (ip), vehicle: other 120 % of control | [1] 114 % of control | dose: 32.0 mg/kg/injection, schedule: Q01DX005 (oral), vehicle: other 95 % of control | dose: 32.0 mg/kg/injection, schedule: Q01DX005 (oral), vehicle: saline 102 % of control | dose: 32.0 mg/kg/injection, schedule: Q## X006 (ip), vehicle: other 112 % of control | dose: 32.0 mg/kg/injection, schedule: Q#A X002 (ip), vehicle: saline 104 % of control and 114 % of control | dose: 57.9 mg/kg/injection, schedule: Q## X006 (ip), vehicle: saline 114 % of control | dose: 64.0 mg/kg/injection, schedule: Q01DX001 (oral), vehicle: other 102 % of control | dose: 64.0 mg/kg/injection, schedule: Q01DX005 (ip), vehicle: other 110 % of control | dose: 64.0 mg/kg/injection, schedule: Q01DX005 (oral), vehicle: other 103 % of control | dose: 64.0 mg/kg/injection, schedule: Q01DX005 (oral), vehicle: saline 101 % of control | dose: 64.0 mg/kg/injection, schedule: Q## X006 (ip), vehicle: other 116 % of control | dose: 64.0 mg/kg/injection, schedule: Q#A X002 (ip), vehicle: saline 89 % of control and 118 % of control | dose: 128.0 mg/kg/injection, schedule: Q01DX001 (oral), vehicle: other 101 % of control | dose: 128.0 mg/kg/injection, schedule: Q01DX005 (oral), vehicle: saline 98 % of control | dose: 128.0 mg/kg/injection, schedule: Q## X006 (ip), vehicle: other 121 % of control | dose: 128.0 mg/kg/injection, schedule: Q#A X002 (ip), vehicle: saline 89 % of control and 113 % of control | dose: 231.7 mg/kg/injection, schedule: Q## X006 (ip), vehicle: saline 119 % of control | dose: 256.0 mg/kg/injection, schedule: Q01DX001 (oral), vehicle: other 113 % of control | dose: 256.0 mg/kg/injection, schedule: Q01DX005 (oral), vehicle: other 93 % of control | dose: 256.0 mg/kg/injection, schedule: Q01DX005 (oral), vehicle: saline 103 % of control | dose: 256.0 mg/kg/injection, schedule: Q#A X002 (ip), vehicle: saline 92 % of control | dose: 512.0 mg/kg/injection, schedule: Q01DX001 (oral), vehicle: other 113 % of control | dose: 512.0 mg/kg/injection, schedule: Q01DX005 (oral), vehicle: saline 113 % of control | dose: 1024.0 mg/kg/injection, schedule: Q01DX001 (oral), vehicle: other 117 % of control

CCOC(=O)C(CC(C)C)NC(=O)C(Cc1ccc(N(CCCl)CCCl)cc1)NC(C)=O (configuration not stated)
inactive: dose: 1.0 mg/kg/injection, schedule: Q01DX005 (ip), vehicle: Klucel (hydroxypropylcellulose) (HPC) 103 % of control | dose: 2.0 mg/kg/injection, schedule: Q01DX005 (ip), vehicle: Klucel (hydroxypropylcellulose) (HPC) 94 % of control and 101 % of control | [2] 96 % of control and 109 % of control | [3] 110 % of control and 119 % of control | [4] 107 % of control | dose: 16.0 mg/kg/injection, schedule: Q#A X002 (ip), vehicle: Klucel (hydroxypropylcellulose) (HPC) 110 % of control | dose: 32.0 mg/kg/injection, schedule: Q01DX001 (ip), vehicle: Klucel (hydroxypropylcellulose) (HPC) 100 % of control | [5] 97 % of control and 116 % of control | dose: 32.0 mg/kg/injection, schedule: Q#A X002 (ip), vehicle: Klucel (hydroxypropylcellulose) (HPC) 96 % of control | dose: 64.0 mg/kg/injection, schedule: Q01DX001 (ip), vehicle: Klucel (hydroxypropylcellulose) (HPC) 97 % of control and 103 % of control | dose: 64.0 mg/kg/injection, schedule: Q01DX001 (oral), vehicle: Klucel (hydroxypropylcellulose) (HPC) 99 % of control and 113 % of control | [6] 91 % of control | dose: 64.0 mg/kg/injection, schedule: Q#A X002 (ip), vehicle: Klucel (hydroxypropylcellulose) (HPC) 94 % of control | [7] 94 % of control and 115 % of control | dose: 128.0 mg/kg/injection, schedule: Q01DX001 (oral), vehicle: Klucel (hydroxypropylcellulose) (HPC) 99 % of control and 110 % of control | dose: 128.0 mg/kg/injection, schedule: Q#A X002 (ip), vehicle: Klucel (hydroxypropylcellulose) (HPC) 99 % of control | dose: 256.0 mg/kg/injection, schedule: Q01DX001 (ip), vehicle: Klucel (hydroxypropylcellulose) (HPC) 91 % of control and 98 % of control | dose: 256.0 mg/kg/injection, schedule: Q01DX001 (oral), vehicle: Klucel (hydroxypropylcellulose) (HPC) 101 % of control and 110 % of control | dose: 512.0 mg/kg/injection, schedule: Q01DX001 (ip), vehicle: Klucel (hydroxypropylcellulose) (HPC) 86 % of control | dose: 512.0 mg/kg/injection, schedule: Q01DX001 (oral), vehicle: Klucel (hydroxypropylcellulose) (HPC) 104 % of control and 114 % of control | dose: 1024.0 mg/kg/injection, schedule: Q01DX001 (oral), vehicle: Klucel (hydroxypropylcellulose) (HPC) 100 % of control and 109 % of control

C[C@@H](CN1CC(=O)NC(=O)C1)N1CC(=O)NC(=O)C1
inactive: dose: 1.0 mg/kg/injection, schedule: Q01DX005 (ip), vehicle: water 110 % of control | dose: 4.0 mg/kg/injection, schedule: Q01DX005 (ip), vehicle: Klucel (hydroxypropylcellulose) (HPC) 103 % of control (2×) and 118 % of control | [2] 103 % of control | dose: 4.0 mg/kg/injection, schedule: Q01DX005 (ip), vehicle: water 106 % of control | [3] 104 % of control | dose: 16.0 mg/kg/injection, schedule: Q01DX005 (ip), vehicle: Klucel (hydroxypropylcellulose) (HPC) 106 % of control and 112 % of control and 120 % of control | [4] 108 % of control | dose: 16.0 mg/kg/injection, schedule: Q01DX005 (ip), vehicle: water 111 % of control | [5] 112 % of control | [1] 108 % of control and 111 % of control | dose: 64.0 mg/kg/injection, schedule: Q01DX005 (ip), vehicle: Klucel (hydroxypropylcellulose) (HPC) 115 % of control and 121 % of control | [6] 113 % of control | dose: 64.0 mg/kg/injection, schedule: Q01DX005 (ip), vehicle: saline 119 % of control and 121 % of control | dose: 64.0 mg/kg/injection, schedule: Q01DX005 (ip), vehicle: water 116 % of control | dose: 128.0 mg/kg/injection, schedule: Q01DX005 (ip), vehicle: saline 120 % of control

Nc1nncs1
inactive: dose: 7.5 mg/kg/injection, schedule: Q01DX009 (ip), vehicle: Klucel (hydroxypropylcellulose) (HPC) 112 % of control | dose: 15.0 mg/kg/injection, schedule: Q01DX009 (ip), vehicle: Klucel (hydroxypropylcellulose) (HPC) 117 % of control | [6] 102 % of control

Cc1nc(N)nc(N)c1-c1ccc(Cl)c(Cl)c1
inactive: dose: 0.5 mg/kg/injection, schedule: Q01DX005 (ip), vehicle: saline with Tween-80 106 % of control and 117 % of control | dose: 1.0 mg/kg/injection, schedule: Q01DX005 (ip), vehicle: saline with Tween-80 89 % of control and 97 % of control | dose: 2.0 mg/kg/injection, schedule: Q01DX005 (ip), vehicle: saline with Tween-80 117 % of control | dose: 6.0 mg/kg/injection, schedule: Q04DX003 (ip), vehicle: saline 101 % of control | dose: 8.0 mg/kg/injection, schedule: Q04DX003 (ip), vehicle: saline 112 % of control

COc1cc(C[C@H]2c3cc(OC)c(OC)cc3CCN2C)c(Oc2cc3c(cc2OC)-c2c(OC)c(OC)cc4c2[C@H](C3)N(C)CC4)cc1OC
inactive: dose: 12.5 mg/kg/injection, schedule: Q01DX005 (ip), vehicle: saline with Tween-80 97 % of control | dose: 25.0 mg/kg/injection, schedule: Q01DX005 (ip), vehicle: saline with Tween-80 92 % of control | dose: 50.0 mg/kg/injection, schedule: Q01DX005 (ip), vehicle: saline with Tween-80 100 % of control | dose: 100.0 mg/kg/injection, schedule: Q01DX005 (ip), vehicle: saline with Tween-80 93 % of control

Cc1c2ccncc2c(C)c2c1[nH]c1ccccc12
inactive: [7] 103 % of control
